Data: publication PMC8778670, “Identification of an Orally Bioavailable, Brain-Penetrant Compound with Selectivity for the Cannabinoid Type 2 Receptor” (Molecules, 2022)

What was measured:
human CB1 receptors = target: T1, human CB1 receptors (Homo sapiens, UniProt P21554); test: Cannabinoid receptor [3H]CP-55,940 displacement binding assay, CB1; details: 1 h; 10 µM compound; CHO cell membranes, 2.5 nM radioligand; read-out: Displacement of [3H]CP-55,940 from CB1
T1 construct: expressed in transfected cells; host or cells: CHO cells
T1 sequence (P21554 whole entry): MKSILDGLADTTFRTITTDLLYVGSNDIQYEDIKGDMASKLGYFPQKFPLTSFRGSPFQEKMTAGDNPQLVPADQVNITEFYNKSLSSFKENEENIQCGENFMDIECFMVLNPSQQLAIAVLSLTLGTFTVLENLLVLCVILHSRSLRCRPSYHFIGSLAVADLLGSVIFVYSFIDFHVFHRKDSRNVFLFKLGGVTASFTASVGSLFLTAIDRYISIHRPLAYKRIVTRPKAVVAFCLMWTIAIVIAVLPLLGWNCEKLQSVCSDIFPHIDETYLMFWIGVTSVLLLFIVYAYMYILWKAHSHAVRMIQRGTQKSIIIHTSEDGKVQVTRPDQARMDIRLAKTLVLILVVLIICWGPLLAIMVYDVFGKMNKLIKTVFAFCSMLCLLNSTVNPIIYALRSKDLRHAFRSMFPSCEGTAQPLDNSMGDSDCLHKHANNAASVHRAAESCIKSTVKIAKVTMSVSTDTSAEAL
Protocol: (§1) The affinities of the compounds for CB1 and CB2 receptors were examined using displacement assays, as previously described. Briefly, cell membranes from CHO cells expressing human CB1 or human CB2 receptors were isolated using differential centrifugation. Test compounds reconstituted in DMSO and were incubated with the isolated membrane in binding buffer (50 mM Tris-HCl, 1 mM EDTA, 3 mM MgCl2, 5 mg/mL BSA, pH 7.4) along with 2.5 nM [^3H]CP-55,940. Total binding was assessed in the presence of equal concentration of DMSO, while non-specific binding was determined in the presence of 10 μM CP-55,940, and background binding was determined in wells lacking membrane. Following incubation at 30 °C for 60 min, the binding reactions were terminated by vacuum filtration through Whatman GF/C filters. The filters were then washed twice with ice-cold buffer (50 mM Tris-HCl, 1 mg/mL BSA). Liquid scintillation cocktail was added to each well and the total tritiated counts per minute were analyzed using a TopCount scintillation counter. Background counts were subtracted from all wells and the percent displacement from total binding was calculated.
(§2) The compounds were initially screened at 10 μM concentrations. If they produced at least ±30% displacement of the radioligand, then full competition curves were constructed. Ki values were calculated using GraphPad Prism (San Diego, CA, USA) and Kd values determined using a 1 site fit. All assays were run in technical and biological replicates so that the n = 5–6.

human CB2 receptors = target: T2, human CB2 receptors (Homo sapiens, UniProt P34972); test: Cannabinoid receptor [3H]CP-55,940 displacement binding assay, CB2; details: for inhibition at 10 µM: 1 h, 10 µM compound, CHO cell membranes, 2.5 nM radioligand, read-out: Displacement of [3H]CP-55,940 from CB2; for displacement of [3H]CP-55,940 in the competitive radioligand screen: 10 µM, receptor (CB1 or CB2) not given
T2 construct: expressed in transfected cells; host or cells: CHO cells
T2 sequence (P34972 whole entry): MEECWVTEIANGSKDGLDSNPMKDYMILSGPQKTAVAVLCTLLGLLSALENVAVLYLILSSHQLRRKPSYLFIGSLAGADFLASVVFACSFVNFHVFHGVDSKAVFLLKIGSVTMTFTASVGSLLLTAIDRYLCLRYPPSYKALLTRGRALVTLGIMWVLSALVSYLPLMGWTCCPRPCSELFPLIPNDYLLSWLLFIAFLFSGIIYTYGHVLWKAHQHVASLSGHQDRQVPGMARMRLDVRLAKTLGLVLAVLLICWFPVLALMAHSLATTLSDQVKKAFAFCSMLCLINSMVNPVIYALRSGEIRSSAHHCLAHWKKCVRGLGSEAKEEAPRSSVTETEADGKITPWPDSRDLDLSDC
Protocol: as §1, §2

Structure (SMILES)	inhibition at 10 µM (human CB1 receptors)	inhibition at 10 µM (human CB2 receptors)	displacement of [3H]CP-55,940 in the competitive radioligand screen (human CB2 receptors)	Ki (human CB2 receptors; CB2, full competition curves vs [3H]CP-55,940)
O=C1c2ccccc2N/C(=N/N=C/c2cncs2)[C@@H]2CCCN12 [Compound 4c, (S,E)-11-[(Thiazol-5-ylmethylene)hydrazono]-pyrrolo[2,1-c][1,4] Benzodiazepine]	0.25%	3.06%		
Cn1cc(/C=N/N=C2/Nc3ccccc3C(=O)N3CCC[C@@H]23)c2ccccc21 [Compound 4o]	5.09%	1.01%		
O=C1c2ccccc2N/C(=N/N=C/c2sc3ccccc3c2Cl)[C@@H]2CCCN12 [Compound 4m]	5.22%	50%		
O=C1c2ccccc2N/C(=N/N=C/c2ccc[nH]2)[C@@H]2CCCN12 [Compound 4a]	-3.09%	-12.5%		
O=C1c2ccccc2N/C(=N/N=C/C23CC4CC(CC(C4)C2)C3)[C@@H]2CCCN12 [Compound 4q]	55.3%	95.6%	more than 60%	137 nM
Cc1ncc(/C=N/N=C2/Nc3ccccc3C(=O)N3CCC[C@@H]23)s1 [Compound 4d]	-28%	-33.6%		
Nc1ncc(/C=N/N=C2/Nc3ccccc3C(=O)N3CCC[C@@H]23)s1 [Compound 4f]	1.75%	3.72%		
Cc1c(/C=N/N=C2/Nc3ccccc3C(=O)N3CCC[C@@H]23)sc2ccccc12 [Compound 4l]	77.2%	51.7%		
Cc1ncsc1/C=N/N=C1/Nc2ccccc2C(=O)N2CCC[C@@H]12 [Compound 4e]	21.9%	19.9%		
O=C1c2cc(Br)ccc2N/C(=N/N=C/c2csc3ccccc23)[C@@H]2CCCN12 [Compound 4j]	66.8%	65.2%		
O=C1c2ccccc2N/C(=N/N=C/c2nc3ccccc3s2)[C@@H]2CCCN12 [Compound 4n, (S,E)-11-[(Benzo[d]thiazol-2-ylmethylene)hydrazono]-pyrrolo[2,1-c][1,4] Benzodiazepine]	44.1%	43.3%		
O=C1c2cc(Br)ccc2N/C(=N/N=C/c2cc3ccccc3s2)[C@@H]2CCCN12 [Compound 4i, (S,E)-11-[(Benzo[b]thiophen-2-ylmethylene)hydrazono]-7-bromo-pyrrolo[2,1-c][1,4] Benzodiazepine]	49.8%	36.4%		
Cn1ccnc1/C=N/N=C1/Nc2ccccc2C(=O)N2CCC[C@@H]12 [Compound 4b]	-14%	-14.5%		
O=C1c2ccccc2N/C(=N/N=C/c2cc3ccccc3s2)[C@@H]2CCCN12 [Compound 4h, (S,E)-11-[2-(Benzo[b]thiophenylmethylene)hydrazono]-pyrrolo[2,1-c][1,4] Benzodiazepine]	36.9%	61%	more than 60%	
O=C1c2ccccc2N/C(=N/N=C/c2sc(Cl)nc2Cl)[C@@H]2CCCN12 [Compound 4g]	24.2%	29.3%		
